Results from publication PMC8286840, “Identifying SARS-CoV-2 antiviral compounds by screening for small molecule inhibitors of Nsp3 papain-like protease” (Biochemical Journal, 2021).
Counter-ions that a name gives are not always drawn. Like-named read-outs stand apart in the source and are kept apart here.

Experiments:
[1] = molecular target: T1, SARS-CoV-2 PLpro (nsp3 1564–1878) (Severe acute respiratory syndrome coronavirus 2, UniProt P0DTD1); test: biochemical; set-up: FRET-quenched peptide (Pro3) cleavage by PLpro, 10 min pre-incubation, slope over 20 min, normalised to no-compound control; conditions: read-out: % of control remaining
[2] = molecular target: T1, SARS-CoV-2 PLpro (nsp3 1564–1878); test: biochemical; set-up: FRET-quenched peptide (Pro3) cleavage by PLpro, 10 min pre-incubation, slope over 20 min, normalised to no-compound control; conditions: read-out: % of control remaining; remark: listed apart in the source

Work on CN1CCN(CCCN2c3ccccc3Sc3ccc(C(F)(F)F)cc32)CC1 [Trifluoperazine dihydrochloride] yielded a remaining activity at 1.25 µM ([1]; Well no.=1326, low concentration screen) of 101% and a remaining activity at 3.75 µM ([2]; Well no.=1326, high concentration screen) of 100%.

With CCCCCC#CCC#CCC#CCC#CCCCC(=O)O [5,8,11,14-Eicosatetraynoic acid] the remaining activity at 1.25 µM ([1]; Well no.=4472, low concentration screen) was 98.7% and the remaining activity at 3.75 µM ([2]; Well no.=4472, high concentration screen) was 97.4%.

Compound CCCCN1CCCCC1C(=O)Nc1c(C)cccc1C (stereo not drawn) [Bupivacaine] has a remaining activity at 1.25 µM ([1]; Well no.=2052, low concentration screen) of 105% and a remaining activity at 3.75 µM ([2]; Well no.=2052, high concentration screen) of 103%.

With CC(O)Cn1cnc2c1c(=O)n(C)c(=O)n2C (stereo not drawn) [Proxyphylline] the remaining activity at 1.25 µM ([1]; Well no.=6220, low concentration screen) was 94.5%, the remaining activity at 1.25 µM ([1]; Well no.=8073, low concentration screen) was 105% and the remaining activity at 3.75 µM ([2]; Well no.=6220, high concentration screen) was 94%. It also gave a remaining activity at 3.75 µM ([2]; Well no.=8073, high concentration screen) of 108%.

Work on CC(C)n1cnc2c(NCCc3ccc(O)cc3)nc(-c3csc4ccccc34)nc21 [StemRegenin 1] yielded a remaining activity at 1.25 µM ([1]; Well no.=4827, low concentration screen) of 101% and a remaining activity at 3.75 µM ([2]; Well no.=4827, high concentration screen) of 98.2%.

Work on COc1cc(OC)c(C(=O)CCCN2CCCC2)c(OC)c1 [Buflomedil HCl] yielded a remaining activity at 1.25 µM ([1]; Well no.=5296, low concentration screen) of 101% and a remaining activity at 3.75 µM ([2]; Well no.=5296, high concentration screen) of 97.4%.

For NC(=O)c1cccnc1 [Nicotinamide (Niacinamide)], the remaining activity at 1.25 µM ([1]; Well no.=4884, low concentration screen) was 97.9% and the remaining activity at 3.75 µM ([2]; Well no.=4884, high concentration screen) was 94.8%.

With N#Cc1c(N)nc(SCc2csc(-c3ccc(Cl)cc3)n2)c(C#N)c1-c1ccc(OCCO)cc1 [Capadenoson] the remaining activity at 1.25 µM ([1]; Well no.=8649, low concentration screen) was 106% and the remaining activity at 3.75 µM ([2]; Well no.=8649, high concentration screen) was 102%.

In the case of CC(=O)N[C@H]1[C@@H](O[C@@H]2O[C@H](C[C@@H](O)[C@@H]3O[C@H](n4ccc(=O)[nH]c4=O)[C@@H](O)[C@H]3O)[C@H](O)[C@H](O)[C@H]2NC(=O)/C=C/CCCCCCCCCCC(C)C)O[C@H](CO)[C@@H](O)[C@@H]1O [Tunicamycin B], the remaining activity at 1.25 µM ([1]; Well no.=3190, low concentration screen) is reported as 104% and the remaining activity at 3.75 µM ([2]; Well no.=3190, high concentration screen) is reported as 103%.

With C[C@H]1[C@H]2CC[C@H]3[C@@H]4CC=C5C[C@@H](N(C)C)CC[C@]5(C)[C@H]4CC[C@]23CN1C [Conessine] the remaining activity at 1.25 µM ([1]; Well no.=3100, low concentration screen) was 94% and the remaining activity at 3.75 µM ([2]; Well no.=3100, high concentration screen) was 93.7%.

C[C@@H](C(=O)O)N(C)C(=O)OCC1c2ccccc2-c2ccccc21 [Fmoc-N-Me-Ala-OH] showed a remaining activity at 1.25 µM ([1]; Well no.=7976, low concentration screen) of 91.3% and a remaining activity at 3.75 µM ([2]; Well no.=7976, high concentration screen) of 92.8%.

For O=C(ON1C(=O)CCC1=O)N1CCN(C(c2ccc(Cl)cc2)c2ccc(Cl)cc2)CC1 [MJN110], the remaining activity at 1.25 µM ([1]; Well no.=5560, low concentration screen) was 97.4% and the remaining activity at 3.75 µM ([2]; Well no.=5560, high concentration screen) was 100%.

O=S(=O)(O)c1ccc2c(N=Nc3ccc(S(=O)(=O)O)c4ccccc34)c(O)c(S(=O)(=O)O)cc2c1 [Amaranth] was tested, and the remaining activity at 1.25 µM ([1]; Well no.=8462, low concentration screen) was 98.1% and the remaining activity at 3.75 µM ([2]; Well no.=8462, high concentration screen) was 97.5%.

Cc1cc2c(cc1CC(=O)c1sccc1S(=O)(=O)Nc1onc(C)c1Cl)OCO2 [Sitaxsentan (sodium)] gave a remaining activity at 1.25 µM ([1]; Well no.=8533, low concentration screen) of 105% and a remaining activity at 3.75 µM ([2]; Well no.=8533, high concentration screen) of 106%.

For CN1CCN(c2nc3ccccc3nc2Cl)CC1 [VUF 10166], the remaining activity at 1.25 µM ([1]; Well no.=4831, low concentration screen) was 99.1% and the remaining activity at 3.75 µM ([2]; Well no.=4831, high concentration screen) was 103%.

For CC(C)(O)[C@H]1CC[C@@](C)([C@H]2[C@@H](O)C[C@@]3(C)[C@@H]4C[C@H](O[C@@H]5O[C@H](CO)[C@@H](O)[C@H](O)[C@H]5O)[C@H]5C(C)(C)[C@@H](O[C@@H]6OC[C@@H](O)[C@H](O)[C@H]6O)CC[C@@]56C[C@@]46CC[C@]23C)O1 [Astragaloside A], the remaining activity at 1.25 µM ([1]; Well no.=5238, low concentration screen) was 98.6% and the remaining activity at 3.75 µM ([2]; Well no.=5238, high concentration screen) was 102%.

Compound C1CCc2nnnn2CC1 [Pentylenetetrazole] has a remaining activity at 1.25 µM ([1]; Well no.=1054, low concentration screen) of 97.5% and a remaining activity at 3.75 µM ([2]; Well no.=1054, high concentration screen) of 99.6%.

With CC(C)Cc1ccc([C@H](C)C(=O)O)cc1 [S(+)-Ibuprofen] the remaining activity at 1.25 µM ([1]; Well no.=825, low concentration screen) was 103% and the remaining activity at 3.75 µM ([2]; Well no.=825, high concentration screen) was 105%.

Cc1cccc(C#Cc2ccccc2)n1 [6-Methyl-2-(phenylethynyl)pyridine hydrochloride] showed a remaining activity at 1.25 µM ([1]; Well no.=834, low concentration screen) of 98.2% and a remaining activity at 3.75 µM ([2]; Well no.=834, high concentration screen) of 95%.

Compound CN1[C@@H]2CC[C@H]1C[C@@H](OC(=O)c1c[nH]c3ccccc13)C2 [Tropisetron (Hydrochloride)] has a remaining activity at 1.25 µM ([1]; Well no.=7467, low concentration screen) of 100% and a remaining activity at 3.75 µM ([2]; Well no.=7467, high concentration screen) of 102%.

Compound COc1ccc2c(c1)c(CC(=O)N1CCOCC1)c(C)n2C(=O)c1ccc(Cl)cc1 [BML-190] has a remaining activity at 1.25 µM ([1]; Well no.=4328, low concentration screen) of 97.5%, a remaining activity at 1.25 µM ([1]; Well no.=8379, low concentration screen) of 96.7% and a remaining activity at 3.75 µM ([2]; Well no.=4328, high concentration screen) of 92.3%. For the same compound, the remaining activity at 3.75 µM ([2]; Well no.=8379, high concentration screen) was 97.9%.

In the case of COc1ccc(C(=O)Nc2sc3c(c2C(N)=O)CCCC3)cc1OC [TCS 359 - 2-[(3,4-Dimethoxybenzoyl)amino]-4,5,6,7-benzo[b]thiophene-3-carboxamide], the remaining activity at 1.25 µM ([1]; Well no.=2580, low concentration screen) is reported as 93.7% and the remaining activity at 3.75 µM ([2]; Well no.=2580, high concentration screen) is reported as 90%.

With N[C@H]1CONC1=O [L-Cycloserine] the remaining activity at 1.25 µM ([1]; Well no.=187, low concentration screen) was 104%, the remaining activity at 1.25 µM ([1]; Well no.=3185, low concentration screen) was 103% and the remaining activity at 3.75 µM ([2]; Well no.=187, high concentration screen) was 101%. The remaining activity at 3.75 µM ([2]; Well no.=3185, high concentration screen) was 102%.

Compound Nc1ccc(S(=O)(=O)Nc2nccs2)cc1 [Sulfathiazole (sodium)] has a remaining activity at 1.25 µM ([1]; Well no.=7404, low concentration screen) of 104% and a remaining activity at 3.75 µM ([2]; Well no.=7404, high concentration screen) of 102%.

For CCCCC/C=C\C\C=C/C=C/C=C/[C@@H](SC[C@H](NC(=O)CC[C@H](N)C(=O)O)C(=O)NCC(=O)O)[C@@H](O)CCCC(=O)O [Leukotriene C4], the remaining activity at 1.25 µM ([1]; Well no.=4429, low concentration screen) was 102% and the remaining activity at 3.75 µM ([2]; Well no.=4429, high concentration screen) was 101%.

Cc1cc(N2CCN([C@@H]3CN[C@H](C(=O)N4CCSC4)C3)CC2)n(-c2ccccc2)n1 [Teneligliptin hydrobromide] was tested, and the remaining activity at 1.25 µM ([1]; Well no.=8110, low concentration screen) was 107% and the remaining activity at 3.75 µM ([2]; Well no.=8110, high concentration screen) was 106%.

CCCCOc1cc(CC2CNC(=O)N2)ccc1OC (stereo not drawn) [Ro 20-1724] gave a remaining activity at 1.25 µM ([1]; Well no.=225, low concentration screen) of 102% and a remaining activity at 3.75 µM ([2]; Well no.=225, high concentration screen) of 100%.

CCCCCCCC(=O)c1c(O)cc(O)cc1CC(=O)OCC [Cytosporone B] was tested, and the remaining activity at 1.25 µM ([1]; Well no.=5993, low concentration screen) was 98.3% and the remaining activity at 3.75 µM ([2]; Well no.=5993, high concentration screen) was 98.7%.

O=Cc1cn(Cc2ccc(Cl)cc2)c2ccccc12 [Oncrasin-1] gave a remaining activity at 1.25 µM [1] of 95.2% and a remaining activity at 3.75 µM [2] of 101%.

In the case of COc1ccc2c(c1)c(CC(=O)O)c(C)n2Cc1ccc(F)cc1 [1-(4-Fluorobenzyl)-5-methoxy-2-methylindole-3-acetic acid], the remaining activity at 1.25 µM ([1]; Well no.=515, low concentration screen) is reported as 99.4% and the remaining activity at 3.75 µM ([2]; Well no.=515, high concentration screen) is reported as 99.5%.

Work on COC(=O)c1ccc2c(c1)nc(NC(=O)c1ccccc1)n2CCCc1ccccc1 [BRD4770] yielded a remaining activity at 1.25 µM ([1]; Well no.=5781, low concentration screen) of 97% and a remaining activity at 3.75 µM ([2]; Well no.=5781, high concentration screen) of 96.3%.

With O=C(O)c1ccccc1C(=O)Nc1ccc(-c2ccccc2)cc1 [Kartogenin] the remaining activity at 1.25 µM ([1]; Well no.=5620, low concentration screen) was 91.3% and the remaining activity at 3.75 µM ([2]; Well no.=5620, high concentration screen) was 96.3%.

With O=[N+]([O-])c1cc(S(=O)(=O)Nc2ccc(O)c3ccccc23)ccc1Cl [4-chloro-N-(4-hydroxy-1-naphthyl)-3-nitrobenzenesulfonamide] the remaining activity at 1.25 µM ([1]; Well no.=5816, low concentration screen) was 96.1% and the remaining activity at 3.75 µM ([2]; Well no.=5816, high concentration screen) was 97.4%.
